Test results reported in patent publication US20050038248A1, “Chemotherapeutic agents” (priority 2001, published 2005).
Like-named read-outs stand apart in the source and are kept apart here.

What was measured:
Format in all cases: cell-based
rat aorta ring = assay: Rat aorta assay for angiogenesis inhibition (rat aorta ring model); conditions: for inhibition at 0.5 µg/mL: 0.5 μg/mL; for inhibition at 1 µg/mL: 1 μg/mL
Excerpt: Rat Aorta Assay for Angiogenesis Inhibition
The rat aorta ring model based on that described by Nicosia and Ottinetti (Nicosia, R. F. et al. Lab. Investigation 63: 115, 1990; Nicosia, R. F. et al. Cell. Dev. Biol. 26: 119-128, 1990), was used throughout the assay.
The agarose was made up as a 1.5% solution in distilled water and brought to the boil to form a clear solution which was poured into sterile 9 cm petri dishes, covered and allowed to cool and set.
Maintaining sterile conditions, agarose rings were obtained by punching two concentric circles, with sterile10 and 17 mm hole punches, respectively, in the agarose gel. Using sterile forceps, the rings are removed and placed, three per well in each of the 6-well plates.
The MEM was prepared according to manufacturer's directions, but before filtering through a 0.22 μm filter, HEPES and L-glutamine were added to give 10 mM and 1 mM concentrations respectively with pH adjusted to 7.4. Eight hundred mL of this medium were filtered through a 0.2 μm filter along with the antibiotics (50 mg/L Gentamycin sulphate and 2.5 mg/L Amphotericin B) and 200 mL of FCS (to give 20%) to yield one litre of medium.
The aorta was removed from a 3-4 month male Copenhagen rat and transferred to a dissecting dish where it was cleaned and carefully stripped of the fibroadipose tissue surrounding it. Rings of 0.5 mm were cut, using a fresh scalpel blade, from the length of the aorta. These were kept under sterile conditions in a biohazard hood where they were washed 12 times with MEM.
Before transferring the aortic rings to the culture plate, the bottom of each agarose well was coated with 150 μL of clotting fibrinogen. Fibrinogen was made up as a 3 mg/mL solution in MEM, while thrombin made up in distilled water to give a concentration of 50 U/mL. The fibrinogen (1 mL) and the thrombin (20 μL) reacted within 30 sec to form a solid gel.
The aortic rings were transferred to the 6-well plates, with one ring placed in the center of each agarose well. Fresh fibrinogen/thrombin was made up as before and 150 μL was used to seal in each aortic ring. The gels were rested for approximately 2 hours before the medium was added.
[…] The compounds were made up as 6 mg/mL solution in water or DMSO. The test solutions were added to each well with the medium.
Six mL of MEM were carefully added to each of three wells to become the controls. MEM, along with the test compounds were added to the remaining wells and all were covered and transferred to the CO2 Incubator at 37° C., where they were kept for the next 14 days.
However, by the fifth day, there were noticeable changes in the tissue. Micro-vessels were seen and scored. We have based the scoring method on that used by Liekens et al. (Liekens, S., et al. Oncol. Res. 9: 173-181, 1997) in which 0 meant no vessels and 10 meant maximum vessels; the score is then converted into a percentage inhibition of vessel growth.

HUVEC [1] = assay: Cord formation assay on matrigel; conditions: Homo sapiens, 24 h incubation
Procedure: Matrigel (60 μL of 10 mg/mL) is placed in each well of an ice-cold 96-well plate. The plate is allowed to sit at room temperature for 15 minutes then incubated at 37° C. for 30 minutes to permit the matrigel to polymerize. In the mean time, HUVEC are prepared in EGM-2 (Clonetic # CC3162) at a concentration of 2×10^5 cells/mL. The test compound is prepared at twice the desired concentration (5 concentration levels) in the same medium. Cells (50 μL) and 2×drug […] is mixed and 200 μL of this suspension are placed in duplicate on the polymerized matrigel. After 24 h incubation, triplicate pictures are taken for each concentration using a Bioquant Image Analysis system. Drug effect (IC50) is assessed compared to untreated controls by measuring the length of cords formed and number of junctions.

HUVEC [2] = assay: Cell migration assay (Boyden chamber); conditions: Homo sapiens, 5 h incubation
Procedure: Migration is assessed using the 48-well Boyden chamber and 8 μm pore size collagen-coated (10 μg/mL rat tail collagen; Collaborative Laboratories) polycarbonate filters (Osmonics, Inc.). The bottom chamber wells receive 27-29 μL of DMEM medium alone (baseline) or medium containing chemo-attractant (bFGF, VEGF or Swiss 3T3 cell conditioned medium). The top chambers receive 45 μL of HUVEC cell suspension […] prepared in DMEM+1% BSA with or without test compound. After 5 h incubation at 37° C., the membrane is rinsed in PBS, fixed and stained in Diff-Quick solutions. The filter is placed on a glass slide with the migrated cells facing down and cells on top are removed using a Kimwipe. The testing is performed in 4-6 replicates and five fields are counted from each well. Negative unstimulated control values are subtracted from stimulated control and drug treated values and data is plotted as mean migrated cell±S.D. IC50 is calculated from the plotted data.

HUVEC [3] = assay: Growth inhibition assay (crystal violet); conditions: HUVEC proliferation, 72 h
Procedure: HUVEC (1.5×10^3) are plated in a 96-well plate in 100 μL of EBM-2 (Clonetic # CC3162). After 24 h (day 0), the test compound (100 μL) is added to each well at twice the desired concentration (5-7 concentration levels) in EBM-2 medium. On day 0, one plate is stained with 0.5% crystal violet in 20% methanol for 10 minutes, rinsed with water, and air-dried. The remaining plates are incubated for 72 h at 37° C. After 72 h, plates are stained with 0.5% crystal violet in 20% methanol, rinsed with water and air-dried. The stain is eluted with 1:1 solution of ethanol:0.1M sodium citrate (including day 0 plate), and absorbance is measured at 540 nm with an ELISA reader (Dynatech Laboratories). Day 0 absorbance is subtracted from the 72 h plates and data is plotted as percentage of control proliferation (vehicle treated cells). IC50 (drug concentration causing 50% inhibition) is calculated from the plotted data.

[4] = Cytotoxicity assay (WST-1); conditions: human, HeLa cervical adenocarcinoma (epithelial) cells, 100 μM test compound
Procedure: (§1) HeLa cervical adenocarcinoma (epithelial) cells were cultured in the presence of 100 μM of test compound for 72 hours and cell viability was measured using the WST-1 tetrazolium salt (cleaved to formazan by mitochondrial respiratory chain enzymes, which are only active in viable cells). The absorbance of the dye solution was measured at 450 nm. Controls included cells alone, 0.05% NP-40 plus cells (100% cytotoxicity control) and each of the compound vehicles alone, DMSO or water at the same final concentration in medium as the compound in test wells. % Cytotoxicity was calculated as follows: % cytotoxicity=100×(1-ODtest compound/ODcells alone).

[5] = test system: HeLa cervical adenocarcinoma (epithelial) cells; assay: Cytotoxicity assay (WST-1); conditions: 100 μM test compound, 72 hours
Procedure: as §1

[6] = Rattus norvegicus, 168 h, 10 μg/mL, day 7, read-out: Growth Inhibition % (Day)
[7] = Rattus norvegicus, 288 h, 10 μg/mL, day 12, read-out: Growth Inhibition % (Day)
[8] = Rattus norvegicus, 120 h, 4 μg/mL, day 5, read-out: Growth Inhibition % (Day)
[9] = Rattus norvegicus, 168 h, day 7, read-out: Growth Inhibition % (Day)
[10] = Rattus norvegicus, 168 h, 4 μg/mL, day 7, read-out: Growth Inhibition % (Day)
[11] = Rattus norvegicus, 288 h, day 12, read-out: Growth Inhibition % (Day)
[12] = Rattus norvegicus, 288 h, 4 μg/mL, day 12, read-out: Growth Inhibition % (Day)
[13] = Rattus norvegicus, 120 h, day 5, read-out: Growth Inhibition % (Day)
[14] = Rattus norvegicus, 120 h, 10 μg/mL, day 5, read-out: Growth Inhibition % (Day)

Question: Which inhibition at 10 µg/mL (rat aorta ring; [6]) does the source give for `CC(C)c1cccc(C(C)C)c1NC(=O)c1ccccc1C(=O)Nc1c(C(C)C)cccc1C(C)C` [Example 6, N,N′-Bis-(2,6-diisopropylphenyl)-phthalamide] here?
Answer: 10%

Question: Which inhibition at 10 µg/mL (rat aorta ring; [7]) does the source give for `COc1ccc(NS(=O)(=O)c2ccccc2S(=O)(=O)Nc2ccc(OC)cc2)cc1` [Example 12, Benzene-1,2-disulfonic acid bis-[(4-methoxyphenyl)-amide]] here?
Answer: 20%

Question: What about the IC50 (HUVEC [1]) of the same molecule?
Answer: > 50000 nM

Question: What about the IC50 (HUVEC [2]) of the same molecule?
Answer: 2300 nM

Question: And the IC50 (HUVEC [3]; Homo sapiens)?
Answer: > 75000 nM

Question: For `COc1ccc(NS(=O)(=O)c2ccccc2C(=O)Nc2ccncc2)cc1` [Example 16], which “Growth Inhibition % (Day)” value (rat aorta ring; 10 μg/mL, day 7) is on record?
Answer: 70 (7) %

Question: What about the “Growth Inhibition % (Day)” value (rat aorta ring; 10 μg/mL, day 12) of the same molecule?
Answer: 10 (12) %

Question: With `COc1ccc(NS(=O)(=O)c2ccccc2NC(=O)c2ccc([N+](=O)[O-])cc2)cc1` [Example 4, N-[2-(4-Methoxyphenylsulfamoyl)-phenyl]-4-nitrobenzamide] as the molecule, how does the cytotoxicity at 72 hours, 100 µM [4] read?
Answer: 56%

Question: Which inhibition at 4 µg/mL (rat aorta ring; [8]) does the source give for `O=C(Nc1ccccc1)c1ccccc1S(=O)(=O)Nc1ccccc1` [Example 2, N-Phenyl-2-phenylsulfamoylbenzamide] here?
Answer: 50%

Question: What about the inhibition at 20 µg/mL (rat aorta ring; Rattus norvegicus, 120 h, 20 μg/mL, day 5, read-out: Growth Inhibition % (Day)) of the same molecule?
Answer: 90%

Question: What about the inhibition at 50 µg/mL (rat aorta ring; Rattus norvegicus, 120 h, 50 μg/mL, day 5, read-out: Growth Inhibition % (Day)) of the same molecule?
Answer: 70%

Question: Which “Growth Inhibition % (Day)” value (rat aorta ring; 4 μg/mL, day 7) does the source give for `CC(C)c1cccc(C(C)C)c1NC(=O)c1ccccc1S(=O)(=O)Nc1c(C(C)C)cccc1C(C)C` [Example 1, N-(2,6,-Diisopropylphenyl)-2-(2,6-diisopropylphenylsulfamoyl)-benzamide] here?
Answer: 100 (7) %

Question: And the “Growth Inhibition % (Day)” value (rat aorta ring; 4 μg/mL, day 14)?
Answer: 100 (14) %

Question: What about the “Growth Inhibition % (Day)” value (rat aorta ring; 20 μg/mL, day 7) of the same molecule?
Answer: 98 (7) %

Question: What about the “Growth Inhibition % (Day)” value (rat aorta ring; 20 μg/mL, day 14) of the same molecule?
Answer: 98 (14) %

Question: What about the “Growth Inhibition % (Day)” value (rat aorta ring; 50 μg/mL, day 7) of the same molecule?
Answer: 100 (7) %

Question: And the “Growth Inhibition % (Day)” value (rat aorta ring; 50 μg/mL, day 14)?
Answer: 100 (14) %

Question: What about the “% Cytotoxicity” value [5] of the same molecule?
Answer: 94%

Question: What about the IC50 (HUVEC [3]) of the same molecule?
Answer: 2400 ± 500 nM

Question: Which results are given for `COc1ccc(NS(=O)(=O)c2ccccc2NS(=O)(=O)c2cccs2)cc1` [Example 13, Thiophene-2-sulfonic acid [2-(4-methoxyphenylsulfamoyl)-phenyl]-amide]?
Answer: inhibition at 0.5 µg/mL (rat aorta ring; [9]): 90%; inhibition at 1 µg/mL (rat aorta ring; [9]): 100%; inhibition at 4 µg/mL (rat aorta ring; [10]): 100%; inhibition at 10 µg/mL (rat aorta ring; [6]): 100%; inhibition at 0.5 µg/mL (rat aorta ring; [11]): 90%; inhibition at 1 µg/mL (rat aorta ring; [11]): 100%; inhibition at 4 µg/mL (rat aorta ring; [12]): 100%; inhibition at 10 µg/mL (rat aorta ring; [7]): 100%; IC50 (HUVEC [1]): 410 ± 30 nM; IC50 (HUVEC [2]): 620 ± 250 nM; IC50 (HUVEC [3]; Homo sapiens): 280 ± 220 nM

Question: With `COc1ccc(N(Cc2ccccc2)S(=O)(=O)c2ccccc2C(=O)Nc2ccncc2)cc1` [Example 15, 2-[Benzyl-(4-methoxyphenyl)-sulfamoyl]-N-pyridin-4-yl-benzamide] as the molecule, how does the inhibition at 4 µg/mL (rat aorta ring; [10]) read?
Answer: 90%

Question: For `COc1ccc(NS(=O)(=O)c2ccccc2NC(=O)c2ccncc2)cc1` [Example 3, N-[2-(4-Methoxyphenylsulfamoyl)-phenyl]-isonicotinamide], which inhibition at 0.5 µg/mL (rat aorta ring; [13]) is on record?
Answer: 100%

Question: And the inhibition at 1 µg/mL (rat aorta ring; [13])?
Answer: 100%

Question: And the inhibition at 4 µg/mL (rat aorta ring; [8])?
Answer: 100%

Question: What about the inhibition at 10 µg/mL (rat aorta ring; [14]) of the same molecule?
Answer: 100%

Question: And the inhibition at 0.5 µg/mL (rat aorta ring; [11])?
Answer: 60%

Question: What about the inhibition at 1 µg/mL (rat aorta ring; [11]) of the same molecule?
Answer: 100%

Question: And the inhibition at 4 µg/mL (rat aorta ring; [12])?
Answer: 100%

Question: And the inhibition at 10 µg/mL (rat aorta ring; [7])?
Answer: 100%

Question: And the IC50 (HUVEC [1])?
Answer: 480 ± 270 nM

Question: What about the cytotoxicity at 72 hours, 100 µM [4] of the same molecule?
Answer: 92%

Question: What about the IC50 (HUVEC [2]) of the same molecule?
Answer: 680 ± 170 nM

Question: And the IC50 (HUVEC [3]; Homo sapiens)?
Answer: 290 ± 220 nM

Question: What does the source list for `COc1ccc(NS(=O)(=O)c2ccccc2NC(=O)c2ccc(F)cc2)cc1` [Example 5, N-[2-(4-Methoxyphenylsulfamoyl)-phenyl]-4-fluorobenzamide]?
Answer: inhibition at 10 µg/mL (rat aorta ring; [14]): 80%; inhibition at 10 µg/mL (rat aorta ring; [7]): 70%; IC50 (HUVEC [1]): 36100 ± 9400 nM; cytotoxicity at 72 hours, 100 µM [4]: 91%; IC50 (HUVEC [3]; Homo sapiens): 7100 ± 2700 nM

Question: What does the source list for `COc1ccc(S(=O)(=O)Nc2ccccc2C(=O)Nc2ccncc2)cc1` [Example 8, 2-(4-Methoxybenzenesulfonylamino)-N-pyridin-4-yl-benzamide]?
Answer: inhibition at 10 µg/mL (rat aorta ring; [14]): 80%; inhibition at 10 µg/mL (rat aorta ring; [7]): 30%; cytotoxicity at 72 hours, 100 µM [4]: 84%
